Results: ChEMBL document CHEMBL1137319, “Thyroid receptor ligands. 6. A high affinity "direct antagonist" selective for the thyroid hormone receptor” (J Med Chem, 2006)

Columns and labels:
[1] = biological target: T1, Thyroid hormone receptor alpha (Homo sapiens, UniProt P10827); assay: Binding affinity to human TRalpha1
T1 sequence (P10827 whole entry): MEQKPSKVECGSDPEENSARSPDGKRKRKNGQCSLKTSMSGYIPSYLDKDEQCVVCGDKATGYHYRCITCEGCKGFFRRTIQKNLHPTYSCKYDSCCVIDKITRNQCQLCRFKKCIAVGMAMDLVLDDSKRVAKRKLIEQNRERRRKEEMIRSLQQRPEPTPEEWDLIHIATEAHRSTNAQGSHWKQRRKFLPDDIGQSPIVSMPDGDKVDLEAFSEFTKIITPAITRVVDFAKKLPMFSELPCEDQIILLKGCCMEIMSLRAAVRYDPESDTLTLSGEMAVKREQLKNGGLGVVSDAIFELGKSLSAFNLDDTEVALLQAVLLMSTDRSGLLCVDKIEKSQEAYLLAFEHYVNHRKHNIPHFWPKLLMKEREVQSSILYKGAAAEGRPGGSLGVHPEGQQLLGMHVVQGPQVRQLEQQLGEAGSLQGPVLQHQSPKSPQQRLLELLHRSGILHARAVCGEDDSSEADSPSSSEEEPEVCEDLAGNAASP

[2] = biological target: T2, Thyroid hormone receptor beta (Homo sapiens, UniProt P10828); assay: Binding affinity to human TRbeta1
T2 sequence (P10828 whole entry): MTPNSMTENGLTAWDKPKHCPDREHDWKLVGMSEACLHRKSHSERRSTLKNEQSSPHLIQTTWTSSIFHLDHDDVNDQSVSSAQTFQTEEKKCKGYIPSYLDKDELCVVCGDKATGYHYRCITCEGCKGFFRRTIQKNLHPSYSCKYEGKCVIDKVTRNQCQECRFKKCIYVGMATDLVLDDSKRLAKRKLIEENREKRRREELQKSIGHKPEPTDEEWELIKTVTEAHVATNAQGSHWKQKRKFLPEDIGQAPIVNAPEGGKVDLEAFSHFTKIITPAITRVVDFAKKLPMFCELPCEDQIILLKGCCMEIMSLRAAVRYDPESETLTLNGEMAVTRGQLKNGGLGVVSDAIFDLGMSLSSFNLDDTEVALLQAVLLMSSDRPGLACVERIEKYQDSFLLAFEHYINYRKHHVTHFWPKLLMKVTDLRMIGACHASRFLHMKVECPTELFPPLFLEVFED

[3] = biological target: T1, Thyroid hormone receptor alpha; assay: Activity at human TR-alpha-1 transfected in CHO K1 cells by alkaline phosphatase reporter gene assay
[4] = biological target: T2, Thyroid hormone receptor beta; assay: Activity at human TR-beta-1 transfected in CHO K1 cells by alkaline phosphatase reporter gene assay
Rattus norvegicus [5] = assay: Increase in LDL cholesterol level in orally dosed cholesterol-fed Sprague-Dawley rat relative to control; assay type: functional
Rattus norvegicus [6] = assay: Decrease in heart rate in orally dosed cholesterol-fed Sprague-Dawley rat relative to control; assay type: functional; parameters: scale not given: the % may be the effect or the level left

O=C(O)CCc1ccccc1OCC1C(Br)CCCC1Br (stereo not drawn)
IC50 [1]: 0.46 µM | IC50 [2]: 0.19 µM

CC(C)c1cc(Oc2c(Br)cc(CCC(=O)O)cc2Br)cc(/C=C/c2ccncc2)c1O
IC50 [1]: 0.036 µM | IC50 [2]: 0.022 µM | IC50 [3]: 0.032 µM | IC50 [4]: 0.032 µM | Activity (Rattus norvegicus [5]): 13% | Activity (Rattus norvegicus [6]): -10%
